Legend:
[1] = Photophysical characterization of dye-antibody complexes (spectral shifts, fluorescence quantum yields); type: physicochemical; conditions: for Absorption Maximum (nm) / Fluorescence Maximum (nm) / Fluorescence Quantum Yield (%): 1 μmol/l dye, 2.4 μmol/l antibody in PBS; for Absorption Maximum (nm) / Fluorescence Maximum (nm): 2 hours at room temperature; for Fluorescence Quantum Yield (%): relative to indocyanine green
Description: Dye-antibody complexes based on antibodies with binding to the indotricarbocyanine dye trisodium-3,3-dimethyl-2-{4-methyl-7-[3,3-dimethyl-5-sulfonato-1-(2-sulfonatoethyl)-3H-indolium-2-yl]hepta-2,4,6-trien-1-ylidene}-1-(2-sulfonatoethyl)-2,3-dihydro-1H-indole-5-sulfonate, inner salt, were examined (see Example 1). Solutions of the concentration of 1 μmol/l of the above-mentioned dye and 2.4 μmol/l of the respective antibody in PBS were produced and incubated for 2 hours at room temperature. The absorption maxima were determined with a spectral photometer (Perkin-Elmer, Lambda2). The fluorescence maxima and fluorescence quantum yields were determined with a SPEX fluorolog (wavelength-dependent sensitivity calibrated by lamp and detector) relative to indocyanine green (Q=0.13 in DMSO, J Chem Eng Data 1977, 22, 379, Bioconjugate Chem 2001, 12, 44). From the absorption and fluorescence maxima, the spectral shifts were calculated relative to the maxima of a solution of the above-mentioned dye without antibodies in PBS (1 μmol/l) (absorption max. 754 nm, fluorescence max. 783 nm, fluorescence quantum yield 10%).

[2] = in DMSO; cited from earlier work
[3] = bound by 12-mer peptides; cited from earlier work
[4] = Inhibition-ELISA for binding of the unconjugated dye by selected HuCAL GOLD Fab fragments
Description: The purified and concentrated phagemids of the HuCAL GOLD antibody library were used in a standard selection process. As antigens, BSA- or transferrin-coupled ZK203468 were used alternately. The antigens were taken up in PBS and applied at concentrations of 50 μg/ml on Maxisorp™ microtiter plates F96 (Nunc). The maxisorp plates were incubated overnight at 4° C. (“coating”). After the maxisorp plates were blocked with 5% milk powder in PBS, about 2E+13 HuCAL GOLD phages were added to the antigen-loaded, blocked-off spots and incubated there overnight or for two hours at room temperature. After several washing steps, which became more stringent with progressive selection rounds, bonded phages were eluted with 20 mmol of DTT or 100 μmol of unconjugated ZK203468. Altogether, three successive selection rounds were carried out, whereby the phage amplification was carried out between the selection rounds, as described above.
Several thousand clones were isolated after the selection and sub-cloning and tested by means of ELISA in 384-well format for specific detection of the antigens ZK203468-BSA and—transferrin used in panning. Clones identified in this connection were studied in an inhibition-ELISA for efficient binding of the unconjugated dye.

[5] = dye without antibodies in PBS (1 μmol/l)
[6] = relative to the dye without antibodies in PBS (1 μmol/l)

Molecule: CC(C=CC=C1N(CCS(=O)(=O)[O-])c2ccc(S(=O)(=O)[O-])cc2C1(C)C)=CC=CC1=[N+](CCS(=O)(=O)[O-])c2ccc(S(=O)(=O)[O-])cc2C1(C)C.[Na+].[Na+].[Na+] [ZK203468, Trisodium-3,3-dimethyl-2-{4-methyl-7-[3,3-dimethyl-5-sulfonato-1-(2-sulfonatoethyl)-3H-indolium-2-yl]hepta-2,4,6-trien-1-ylidene}-1-(2-sulfonatoethyl)-2,3-dihydro-1H-indole-5-sulfonate, Inner Salt]
- Absorption Maximum (nm) [1]: 754 nm
- Fluorescence Maximum (nm) [1]: 783 nm
- absorption max. [1, 5]: 754 nm
- fluorescence max. [1, 5]: 783 nm
- fluorescence quantum yield [1, 5]: 10%
- Fluorescence Quantum Yield (%) [1]: 10.0%

Molecule: CC1(C)C(/C=C/C=C/C=C/C=C2\N(CCCCS(=O)(=O)O)c3ccc4ccccc4c3C2(C)C)=[N+](CCCCS(=O)(=O)[O-])c2ccc3ccccc3c21 [indocyanine green]
- fluorescence quantum yield Q [2]: 0.13

Molecule: Texas Red
- red shift of the absorption [3]: 2.8 nm
- red shift of the fluorescence [3]: 1.4 nm

B1: MOR02965: HuCAL GOLD Fab fragment binding dye ZK203468; protein SEQ-ID NO: 5 (VH-CH) and 6 (VL-CL) (antibody)
heavy: QVQLQQSGPGLVKPSQTLSLTCAISGDSVSSNSAAWSWIRQSPGRGLEWLGRIYYRSKWYNDYAVSVKSRITINPDTSKNQFSLQLNSVTPEDTAVYYCARTSFYQKLFFIAFDHWGQGTLVTVSSASTKGPSVFPLAPSSKSTSGGTAALGCLVKDYFPEPVTVSWNSGALTSGVHTFPAVLQSSGLYSLSSVVTVPSSSLGTQTYICNVNHKPSNTKVDKKVEPKSEFEQKLISEEDLNGAPWSHPQFEK
light: DIALTQPASVSGSPGQSITISCTGTSSDGGAYHYVSWYQQHPGKAPKLMIYGVIYRPSGVSNRFSGSKSGNTASLTISGLQAEDEADYYCAAWDFRKRLNVFGGGTKLTVLGQPKAAPSVTLFPPSSEELQANKATLVCLISDFYPGAVTVAWKADSSPVKAGVETTTPSKQSNNKYAASSYLSLTPEQWKSHRSYSCQVTHEGSTVEKTVAPTEA
modifications: Fab fragment of variable heavy chain; Fab fragment of variable light chain
- binding to the non-conjugated dye ZK203468 [4]: bind efficiently
- Absorption Maximum (nm) [1]: 799 nm
- Fluorescence Maximum (nm) [1]: 815 nm
- Fluorescence Quantum Yield (%) [1]: 13.0%
- Absorption Shift (nm) [1, 6]: 45 nm
- Fluorescence Shift (nm) [1, 6]: 32 nm
